Assay [1] concerns the target BACE1 enzyme (Homo sapiens, UniProt P56817). Nature of the assay: BACE1 cell-free assay (fluorescence polarization, synthetic APP substrate).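 On all read-outs here: soluble His-tagged BACE1 purified from transfected CHO-K1 cell media, biotinylated Oregon Green-labelled peptide substrate, 3 h at 37 °C, cleavage followed as change in fluorescence polarization.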 It counts as biochemical. The following applies: for IC50: values marked b from a single determination; for activity against the BACE1 enzyme: statement in words, used to assign stereochemistry. (Fluorescence polarisation rises when a labelled molecule tumbles more slowly, as on binding a larger partner.)

Assay [2] has as its system sAPPβ levels in H4 human neuroglioma cells over-expressing wild-type human APP695. Description: sAPPβ whole cell assay (in vitro sAPPb assay, TMB-ELISA). It counts as cell-based. A general note: ELISA stands for enzyme-linked immunosorbent assay.
[3] abbreviates: geometric mean of 2-6 determinations.
Setting [4] is: Homo sapiens, 18 hours, geometric mean of 2-6 determinations.
Setting [5] is: geometric mean of 2-4 determinations.
Setting [6] is: Homo sapiens, 18 hours, geometric mean of 2-4 determinations, values marked b from a single determination.
[7] abbreviates: Homo sapiens, 18 h, geometric mean of 2-4 determinations, values marked b from a single determination.

Where a name gives a salt, the structure may show the parent alone.

One may read the IC50 as the concentration that inhibits the measured activity by half. A high value points to weaker potency.

BACE1 enzyme, sequence (P56817 46-501 limits assumed): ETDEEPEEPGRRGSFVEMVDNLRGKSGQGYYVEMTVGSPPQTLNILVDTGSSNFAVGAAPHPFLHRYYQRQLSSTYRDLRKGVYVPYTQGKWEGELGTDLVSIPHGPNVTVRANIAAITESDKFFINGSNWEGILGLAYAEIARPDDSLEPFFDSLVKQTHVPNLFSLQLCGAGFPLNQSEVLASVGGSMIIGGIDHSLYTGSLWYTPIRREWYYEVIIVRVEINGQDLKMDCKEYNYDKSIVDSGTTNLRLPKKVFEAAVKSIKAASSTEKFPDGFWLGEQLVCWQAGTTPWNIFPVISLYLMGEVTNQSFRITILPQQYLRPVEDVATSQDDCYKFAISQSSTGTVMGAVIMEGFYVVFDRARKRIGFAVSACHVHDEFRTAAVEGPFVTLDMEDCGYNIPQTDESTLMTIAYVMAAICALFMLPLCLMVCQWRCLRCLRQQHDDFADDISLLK

In the case of `NC1=N[C@@]2(c3ccccc3F)COCC[C@H]2CS1` (racemic) [Example 23], the IC50 in assay [1] (setting [3]) turned out to be 7950 nM; in assay [2] (18 hours, geometric mean of 2-6 determinations) it was 436 nM. Turning to `C[C@H]1SC(N)=N[C@@]2(c3ccccc3F)COCC[C@@H]12` (racemic) [Example 27], the values for the IC50 in assay [1] (setting [3]) and in assay [2] (setting [4]) were 6720 nM and 434 nM, respectively.

For `C[C@@H]1SC(N)=N[C@@]2(c3ccccc3F)COCC[C@@H]12` (racemic) [Example 28], the figures for the IC50 in assay [1] (setting [3]) and in assay [2] (setting [4]) were 11200 nM and 445 nM, respectively. Take `C[C@H]1SC(N)=N[C@@]2(c3cc(Br)ccc3F)COCC[C@@H]12` (racemic) [Example 30]: the IC50 was 27800 nM in assay [1] (setting [3]) and 1650 nM in assay [2] (setting [4]).

On to `C[C@H]1SC(N)=N[C@@]2(c3cc(-c4cncnc4)ccc3F)COCC[C@@H]12` (racemic) [Example 31], for which the IC50 stood at 3000 nM in assay [1] (setting [3]) and 112 nM in assay [2] (setting [4]). With `NC1=N[C@@]2(c3ccc(F)cc3)COCC[C@H]2CS1` (relative stereo) [Example 11, rel-(4aR,8aS)-8a-(4-Fluorophenyl)-4,4a,5,6,8,8a-hexahydropyrano[3,4-d][1,3]thiazin-2-amine], the half-maximal inhibitory concentration (IC50) in assay [1] (setting [5]) is 7520 nM; in assay [2] (setting [6]), 380 nM. With `NC1=N[C@@]2(c3ccccc3F)COCC[C@H]2CS1` (relative stereo) [Example 12, rel-(4aR,8aS)-8a-(2-Fluorophenyl)-4,4a,5,6,8,8a-hexahydropyrano[3,4-d][1,3]thiazin-2-amine], the IC50 in assay [1] (setting [5]) was 7950 nM; in assay [2] (setting [7]), 436 nM. With `Cc1ccc([C@]23COCC[C@H]2CSC(N)=N3)c(F)c1` (relative stereo) [Example 13, rel-(4aR,8aS)-8a-(2-Fluoro-4-methylphenyl)-4,4a,5,6,8,8a-hexahydropyrano[3,4-d][1,3]thiazin-2-amine, hydrochloride salt], the results for the 50% inhibitory concentration (IC50) in assay [1] (setting [5]) and in assay [2] (setting [6]) were 3730 nM and 438 nM, respectively. Consider `NC1=N[C@@]2(c3ccccc3)COCC[C@H]2CS1` (relative stereo) [Example 14, rel-(4aR,8aS)-8a-Phenyl-4,4a,5,6,8,8a-hexahydropyrano[3,4-d][1,3]thiazin-2-amine], for which the IC50 in assay [1] (setting [5]) came out at 10400 nM; in assay [2] (setting [6]), 477 nM. In assay [2] (setting [7]), `NC1=N[C@@]2(c3c(F)cccc3F)COCC[C@H]2CS1` (relative stereo) [Example 16, rel-(4aR,8aS)-8a-(2,6-Difluorophenyl)-4,4a,5,6,8,8a-hexahydropyrano[3,4-d][1,3]thiazin-2-amine] returned a half-maximal inhibitory concentration (IC50) of 506 nM. This lies in the sub-micromolar range.

`NC1=N[C@@]2(c3ccc(Cl)cc3F)COCC[C@H]2CS1` (relative stereo) [Example 17, rel-(4aR,8aS)-8a-(4-chloro-2-Fluorophenyl)-4,4a,5,6,8,8a-hexahydropyrano[3,4-d][1,3]thiazin-2-amine, hydrochloride salt]: the concentration for half-maximal inhibition (IC50) in assay [1] (setting [5]) is 10200 nM; in assay [2] (setting [6]) it was 775 nM.

For the compound `NC1=N[C@@]2(c3ccc(O)cc3F)COCC[C@H]2CS1` (relative stereo) [Example 18, rel-4-[(4aR,8aS)-2-Amino-4,4a,5,6-tetrahydropyrano[3,4-d][1,3]thiazin-8a(8H)-yl]-3-fluorophenol, ammonium salt], the half-inhibitory concentration (IC50) in assay [1] (setting [5]) worked out at 5350 nM; in assay [2] (setting [6]), 1000 nM. Turning to `COc1ccccc1[C@]12COCC[C@H]1CSC(N)=N2` (relative stereo) [Example 19, rel-(4aR,8aS)-8a-(2-Methoxyphenyl)-4,4a,5,6,8,8a-hexahydropyrano[3,4-d][1,3]thiazin-2-amine], the figures for the half-maximal inhibitory concentration (IC50) in assay [1] (setting [5]) and in assay [2] (setting [6]) were > 100000 nM and 4030 nM, respectively. Turning to `NC1=N[C@@]2(c3ccc(F)cc3F)COCC[C@H]2CS1` [Example 1, (4aR,8aS)-8a-(2,4-Difluorophenyl)-4,4a,5,6,8,8a-hexahydropyrano[3,4-d][1,3]thiazin-2-amine], the “activity against the BACE1 enzyme” value in assay [1] is reported as “displays activity against the BACE1 enzyme”. In addition, half-maximal inhibition in assay [2] (setting [6]) (IC50) required 211 nM.

On to `CC(C)OC[C@H]1C[C@H]2CSC(N)=N[C@@]2(c2ccccc2F)CO1` [Example 2, (4aR,6R,8aS)-8a-(2-Fluorophenyl)-6-[(propan-2-yloxy)methyl]-4,4a,5,6,8,8a-hexahydropyrano[3,4-d][1,3]thiazin-2-amine, trifluoroacetate salt], for which the IC50 in assay [1] (setting [5]) stood at 396 nM; in assay [2] (setting [6]) it was 72.9 nM. In the case of `NC1=N[C@@]2(c3ccc(F)cc3F)CO[C@@H](CO)C[C@H]2CS1` [Example 3, [(4aR,6R,8aS)-2-Amino-8a-(2,4-difluorophenyl)-4,4a,5,6,8,8a-hexahydropyrano[3,4-d][1,3]thiazin-6-yl]methanol], the IC50 is 2270 nM in assay [1] (setting [5]) and 436 nM in assay [2] (setting [6]). The like results for `NC1=N[C@@]2(c3ccccc3F)CO[C@@H](CF)C[C@H]2CS1` [Example 5, (4aR,6R,8aS)-6-(Fluoromethyl)-8a-(2-fluorophenyl)-4,4a,5,6,8,8a-hexahydropyrano[3,4-d][1,3]thiazin-2-amine] were, in that order, 838 nM and 83.4 nM. As to `NC1=N[C@@]2(c3ccc(F)cc3F)CO[C@@H](COCc3ccccc3)C[C@H]2CS1` [Example 6, (4aR,6R,8aS)-6-[(Benzyloxy)methyl]-8a-(2,4-difluorophenyl)-4,4a,5,6,8,8a-hexahydropyrano[3,4-d][1,3]thiazin-2-amine, trifluoroacetic acid salt], the IC50 in assay [1] (setting [5]) amounted to 32.3 nM; in assay [2] (setting [6]), 64.6 nM. For `NC1=N[C@@]2(c3ccccc3F)CO[C@@H](COc3ccccc3)C[C@H]2CS1` [Example 7, (4aR,6R,8aS)-8a-(2-Fluorophenyl)-6-(phenoxymethyl)-4,4a,5,6,8,8a-hexahydropyrano[3,4-d][1,3]thiazin-2-amine], the concentration for half-maximal inhibition (IC50) was determined as 826 nM in assay [1] (setting [5]) and 108 nM in assay [2] (setting [6]).

For `NC1=N[C@@]2(c3ccccc3F)CO[C@@H](COc3ccccn3)C[C@H]2CS1` [Example 8, (4aR,6R,8aS)-8a-(2-Fluorophenyl)-6-[(pyridin-2-yloxy)methyl]-4,4a,5,6,8,8a-hexahydropyrano[3,4-d][1,3]thiazin-2-amine], the IC50 in assay [1] (setting [5]) was 2380 nM; in assay [2] (setting [6]), 239 nM. With `CCOC[C@H]1C[C@H]2CSC(N)=N[C@@]2(c2ccccc2F)CO1` [Example 9, (4aR,6R,8aS)-6-(Ethoxymethyl)-8a-(2-fluorophenyl)-4,4a,5,6,8,8a-hexahydropyrano[3,4-d][1,3]thiazin-2-amine, trifluoroacetic acid salt], the IC50 in assay [1] (setting [5]) came to 914 nM; in assay [2] (setting [6]) it was 80 nM. In the case of `NC1=N[C@@]2(c3ccccc3F)CO[C@@H](COC(=O)c3ccccc3)C[C@H]2CS1` [Example 15, [(4aR,6R,8aS)-2-Amino-8a-(2-fluorophenyl)-4,4a,5,6,8,8a-hexahydropyrano[3,4-d][1,3]thiazin-6-yl]methyl benzoate], the IC50 in assay [1] (setting [5]) was 13000 nM; in assay [2] (setting [6]), 492 nM.

As for `NC1=N[C@]2(c3ccc(F)cc3F)COCC[C@@H]2CS1` [Example 20, (4aS,8aR)-8a-(2,4-Difluorophenyl)-4,4a,5,6,8,8a-hexahydropyrano[3,4-d][1,3]thiazin-2-amine], in assay [1], the “activity against the BACE1 enzyme” value is “does not”. The concentration for half-maximal inhibition (IC50) in assay [2] (setting [6]) is > 27100 nM.

Regarding `NC1=N[C@@]2(c3ccccc3F)CO[C@@H](COc3cnccn3)C[C@H]2CS1` [Example 21, (4aR,6R,8aS)-8a-(2-Fluorophenyl)-6-[(pyrazin-2-yloxy)methyl]-4,4a,5,6,8,8a-hexahydropyrano[3,4-d][1,3]thiazin-2-amine, trifluoroacetic acid salt], the IC50 in assay [1] (setting [5]) was 2030 nM; in assay [2] (setting [6]), 23.1 nM. Consider `NC1=N[C@@]2(c3ccccc3F)CO[C@@H](COc3ncccn3)C[C@H]2CS1` [Example 22, (4aR,6R,8aS)-8a-(2-Fluorophenyl)-6-[(pyrimidin-2-yloxy)methyl]-4,4a,5,6,8,8a-hexahydropyrano[3,4-d][1,3]thiazin-2-amine, trifluoroacetic acid salt], for which the IC50 in assay [1] (setting [5]) is 8030 nM; in assay [2] (setting [6]) it was 71.1 nM. In the case of `NC1=N[C@@]2(c3ccccc3F)COCC[C@H]2CS1` [Example 24], the IC50 stood at 4540 nM in assay [1] (setting [3]) and 452 nM in assay [2] (Homo sapiens, 18 h, geometric mean of 2-6 determinations). Take `NC1=N[C@@]2(c3ccccc3OC(F)(F)F)COCC[C@H]2CS1` [Example 25]: the half-maximal inhibitory concentration (IC50) in assay [1] (setting [3]) worked out at 87900 nM. This counts as double-digit micromolar. For `COC[C@H]1C[C@H]2CSC(N)=N[C@@]2(c2ccccc2F)CO1` [Example 26], the IC50 in assay [1] (setting [3]) amounted to 1240 nM; in assay [2] (setting [4]) it was 148 nM. Consider `NC1=N[C@@]2(c3ccccc3F)CO[C@@H](CO)C[C@H]2CS1` [Example 29], for which the 50% inhibitory concentration (IC50) was found to be 8410 nM in assay [1] (setting [3]) and 493 nM in assay [2] (setting [4]).

The values are drawn from patent US8933221B2, “Hexahydropyrano[3,4-d][1,3]thiazin-2-amine compounds” (Pfizer Inc., priority 2011, dated 2015).
